The values that follow come from US8822486B2, “Spiropiperidine compounds” (Eli Lilly and Company, priority 2009, dated 2014).

The target in the assay is T1, PPARγ (Homo sapiens, UniProt P37231).
T1 sequence (P37231 1-505): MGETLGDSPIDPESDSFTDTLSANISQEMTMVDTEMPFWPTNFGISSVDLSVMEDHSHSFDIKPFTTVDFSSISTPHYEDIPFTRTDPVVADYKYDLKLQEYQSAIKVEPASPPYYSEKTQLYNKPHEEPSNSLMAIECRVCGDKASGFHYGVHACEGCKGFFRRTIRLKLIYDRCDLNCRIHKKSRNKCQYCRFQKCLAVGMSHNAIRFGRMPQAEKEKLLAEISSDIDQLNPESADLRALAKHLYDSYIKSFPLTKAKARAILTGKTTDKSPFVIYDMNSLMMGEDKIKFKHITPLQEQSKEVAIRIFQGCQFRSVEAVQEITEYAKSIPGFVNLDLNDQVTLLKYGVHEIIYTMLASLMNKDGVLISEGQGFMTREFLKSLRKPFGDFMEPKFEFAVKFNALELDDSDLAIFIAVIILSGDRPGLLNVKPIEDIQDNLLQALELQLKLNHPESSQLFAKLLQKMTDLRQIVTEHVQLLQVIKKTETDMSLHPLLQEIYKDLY
T1 sequence (P19793 1-462 partner): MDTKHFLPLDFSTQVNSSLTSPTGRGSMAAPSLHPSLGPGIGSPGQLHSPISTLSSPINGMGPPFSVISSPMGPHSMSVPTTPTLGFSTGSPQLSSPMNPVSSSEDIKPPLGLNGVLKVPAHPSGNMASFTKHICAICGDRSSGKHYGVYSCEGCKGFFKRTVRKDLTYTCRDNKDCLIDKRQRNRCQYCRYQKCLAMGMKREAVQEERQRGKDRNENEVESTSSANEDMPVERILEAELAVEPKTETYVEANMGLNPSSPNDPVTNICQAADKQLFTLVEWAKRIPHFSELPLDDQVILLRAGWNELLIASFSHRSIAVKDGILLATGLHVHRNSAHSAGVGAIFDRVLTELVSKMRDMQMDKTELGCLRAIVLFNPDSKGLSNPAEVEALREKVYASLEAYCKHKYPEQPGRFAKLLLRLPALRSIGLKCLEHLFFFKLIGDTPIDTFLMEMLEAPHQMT
Description: PPARγ binding assay (SPA). The arrangement: made in house; host or cells: HEK293 (cell lysates). As to conditions: concentrations up to 10 μM. Here is the method: Because GPR40 is known to be activated by ligands to PPARγ exemplified compounds are examined in PPARα, PPARδ, and PPARγ binding and functional assays to determine the selectivity of exemplified compounds for GPR40. Compounds exemplified herein are tested essentially as described below for PPAR binding and generally have binding values greater than 1000 nM with 10 μM concentrations of test compound and are thus considered negative for PPAR activity.
Binding affinities of compounds for the PPAR α, δ, and γ receptors are assessed using Scintillation Proximity Assay (SPA) technology. Biotinylated oligonucleotide Direct Repeat 2 (DR2) is used for binding the receptors to Yttrium silicate streptavidin-coated SPA beads. […] Non-specific binding is determined in the presence of 10,000 nM of the unlabeled PPAR α/δ dual agonist reference compound for the alpha and delta receptor assays and the PPARγ agonist reference compound for the gamma receptor assay. The binding reaction (100 μl per well in a 96 well [Costar 3632] plate) is incubated for 10 h and counted disintegration per minutes (dpm) on a Wallac Microbeta. Receptor binding affinity (IC50) for the compounds is determined by fitting an 11 point concentration-response curve with a 4-paramater logistic equation. K, is determined from the IC50 using the Cheng-Prussoff equation and Kd determined by saturation binding. […]

Molecules are shown by their SMILES.

As for `CC#C[C@@H](CC(=O)O)c1ccc(OCc2ccc(CN3CCC4(C=Cc5ccccc54)CC3)s2)cc1` [Example 1, (3S)-3-[4-[[5-(Spiro[indene-1,4′-piperidine]-1′-ylmethyl)-2-thienyl]methoxy]phenyl]hex-4-ynoic acid], the PPARγ binding entry is “no binding is detected”.
